Data from ChEMBL document CHEMBL1135799, “Graphical model for estimating oral bioavailability of drugs in humans and other species from their Caco-2 permeability and in vitro liver enzyme metabolic stability rates” (J Med Chem, 2002).

Experiments:
[1] = Metabolic stability observed at 30 min after administration in human liver microsomes; assay type: ADME, Microsome; conditions: read-out: R
[2] = In vitro rate of absorption observed as Caco-2 permeability in humans; assay type: ADME, cell-based; conditions: human, read-out: Papp e-6
[3] = Oral bioavailability in human; assay type: ADME, organism-based; conditions: in vivo

Row | Compound | remaining at 0.5 h [1] [%] | Papp [2] [×10⁻⁶ cm/s] | bioavailability [3] [%]
1 | NC(=O)N1c2ccccc2C=Cc2ccccc21 [CARBAMAZEPINE] | 96 | 22.8 | 70
2 | COc1ccc2c(c1)c(CC(=O)O)c(C)n2C(=O)c1ccc(Cl)cc1 [INDOMETHACIN] | 95 | 20.4 | 98
3 | OC[C@@H](O)[C@@H](O)[C@H](O)[C@H](O)CO [MANNITOL] | 100 | 2 | 18
4 | CC(=O)CC(c1ccccc1)c1c(O)c2ccccc2oc1=O (centres undefined) [WARFARIN] |  | 38.3 | 
5 | COCCc1ccc(OCC(O)CNC(C)C)cc1 (centres undefined) [METOPROLOL] | 73 | 27 | 38
6 | CC(C)(C)NC[C@H](O)COc1nsnc1N1CCOCC1 [TIMOLOL] | 71 | 12.8 | 50
7 | CC(C)NCC(O)COc1cccc2ccccc12 (centres undefined) [PROPRANOLOL] | 29 | 41.9 | 26
